From patent EP4700041A1, “NOVEL PEPTIDE HAVING ACTIVITY OF RETARDING DEGRADATION OF HYALURONIC ACID AND USES THEREOF” (Caregen Co., Ltd., priority 2023, dated 2026)
Ends that are not written are not given here.

Experiments:
[1] = Delay of hyaluronic acid degradation by reactive oxygen species in hyaluronic acid solution (viscosity, rheometer); details: 1.5 wt% hyaluronic acid solution in PBS; peptide 100 ppm, 1000 ppm, 5000 ppm; 500 mM H2O2; 60 and 180 minutes; FIG. 5
Experimental: Hyaluronic acid was dissolved in PBS to a concentration of 1.5 wt% and hydrated, and 10 g of this solution was dispensed into each conical tube. Peptide solutions were added to the dispensed hyaluronic acid solutions so that the final peptide concentrations were 0 ppm (no addition), 100 ppm, 1000 ppm, and 5000 ppm, respectively. 2 mL of 500 mM hydrogen peroxide (H2O2) was added to each. Viscosity was measured using a rheometer (single shear stress) by sampling at 0, 30, 60, and 180 minutes to compare the viscosity values according to the peptide concentration. As above, 1.5 wt% hyaluronic acid solutions containing peptides at each concentration were treated with hydrogen peroxide to maintain the degradation reaction by reactive oxygen species for 60 and 180 minutes, thereby degrading hyaluronic acid. After the degradation reaction, the viscosity of each hyaluronic acid solution was measured to confirm the degradation delaying efficacy.

[2] = Delay of hyaluronic acid degradation by reactive oxygen species in BDDE-cross-linked filler (Congo Red diffusion, absorbance 500 nm); details: 37°C, FIG. 6
Experimental: A 1,4-Butanediol diglycidyl ether (BDDE)-cross-linked hyaluronic acid filler with or without the peptide of Preparation Example 1 was prepared, and Congo Red and hyaluronidase (HAdase) as absorbing dyes were prepared. 20 µL of 1 mM Congo Red was added to each 1.5 mL eppendorf tube, and 100 µL each of the peptide-free filler (control filler) and the peptide-containing filler were added on the absorbing dye. Each was treated with 350 µL of 500 mM hydrogen peroxide (H2O2). Each tube was placed in an incubator at 37°C, and 100 µL of the sample supernatant was collected at time points of 1 hour, 3 hours, 6 hours, 24 hours, 48 hours, and 72 hours and transferred to 96-wells. The absorbance was measured at 500 nm using a microplate reader (SpectraMax iD3, Molecular devices, USA). As above, BDDE-cross-linked hyaluronic acid filler samples with or without the peptide were prepared, and the degree of degradation of hyaluronic acid filler by reactive oxygen species was compared depending on the presence or absence of peptide. The degree of degradation of hyaluronic acid filler was measured by the change in absorbance due to the diffusion of dye. That is, the principle that the flowability of the sample increases when hyaluronic acid is degraded by reactive oxygen species and thus the diffusion of the dye increases was utilized.

[3] = pH stability of the peptide (HPLC area); type: physicochemical; details: 1000 ppm solution, pH 4 to pH 10, HPLC area compared with pH 7; FIG. 7b
Experimental: The evaluation of pH stability was performed as follows. A diluted solution of the peptide of Preparation Example 1 at a concentration of 1000 ppm was prepared, and the initial pH value of the solution was measured (pH = 3.21). 0.5 M NaOH was added so as to titrate the pH of the solution to pH 4, pH 7, and pH 10, respectively. Each sample was filtered through a 0.22 µm filter. The area values were compared based on pH 7 measured by HPLC.

[4] = Thermal stability of the peptide (HPLC area); type: physicochemical; details: 1000 ppm solution, 50°C vs 25°C, 72 hours, FIG. 7a
Experimental: The evaluation of thermal stability was performed as follows. A diluted solution of the peptide of Preparation Example 1 at a concentration of 1000 ppm was prepared, dispensed into 50 mL conical tubes, and placed in an incubator at 25°C and 50°C. After 72 hours, 1 mL of each sample was filtered through a 0.22 µm filter. The area values were compared at 25°C based on pH 7 measured by HPLC.

For “KIWNLEPSRNGT [SEQ ID NO: 1, KIWNLEPSRNGT]”, the “degradation of hyaluronic acid by reactive oxygen species (viscosity)” value [1] was “degradation of hyaluronic acid was delayed as the concentration of peptide increased”, the degradation delay improved ([2]; BDDE-cross-linked hyaluronic acid filler with peptide vs peptide-free control filler, 24 hours after treatment with 500 mM hydrogen peroxide) was ≥ 50% and the “effect of delaying degradation” value ([2]; BDDE-cross-linked hyaluronic acid filler with peptide, treated for 48 hours with 500 mM hydrogen peroxide) was 85%. The pH stability [3] was “stable” and the thermal stability [4] was “stable”.
